The text below walks through data of patent US9618524B2, “Method, composition, isolation and identification of a plaque particle and related biomarker” (Plaxgen Inc., priority 2012, dated 2017).

Common to all, as to assay: Mass spectroscopy proteomics, semi-quantitative binding affinity of serum proteins (plaqueproteome, Table 2)
Holding throughout (details): higher number = stronger affinity

Test [1] deals with High Density cholesterol (Chl Large) plaque particles. Set-up: species or system human. A digest of the protocol:
(§1)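 Proteins bound to flow-sorted cholesterol plaque particles (large/high-density or small/low-density gates) were identified by LC-MS/MS after trypsin digestion. Particles were formed from 50% atherosclerotic serum or plasma with 30 μg cholesterol aggregates, 1 h, 37 °C. Sequest human database search; Scaffold validation.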

Test [2] concerns Low density cholesterol (Chl small) plaque particles. Also on record: species or system human. A digest of the protocol:
as §1

The target of test [3] is T1, Abeta-42 plaque particles (Homo sapiens, UniProt P05067).
T1 construct: Abeta 1-42
A digest of the protocol:
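AD patient serum or plasma (50% in PBS) was incubated with Abeta-42 aggregates (30 μg) for 1 h at 37 °C, then stained with Thioflavin S for 30 min. Labeled particles were FACS-sorted, trypsin/Lys-C digested overnight and analyzed by MS/MS. Sequest searched human UniProt; Scaffold/Protein Prophet validated the identifications.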

A further test has as its system Tau plaque particles. Also on record: species or system human. A digest of the protocol: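 Synthetic Tau-74 and Tau-275 peptides (1 mg/mL PBS, 37° C, 2 h) aggregated; 30 μg aggregates incubated with 50% serum/plasma 1 h at 37° C, stained with Thioflavin S, and plaque particles sorted by flow cytometry. Bound proteins trypsin-digested and identified by MS/MS against human UniProt.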

For test [4], the target named is T2, alpha-synuclein plaque particles (Homo sapiens, UniProt P37840).
T2 construct: 140 amino acids polypeptide
The procedure, abridged: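 AD-subject plasma or serum (800 μL of 50%) mixed with 30 μg preformed alpha-synuclein aggregates for 1 h at 37 °C; Thioflavin S-positive particles isolated by flow sorting. After reduction, acrylamide alkylation and overnight tryptic digestion, serum proteins identified by MS/MS with Sequest and Scaffold.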

Turning to Ig heavy chain V-III region Gal, the “Semi-quantitative analysis of proteins binding to different plaque particles: Chl Large” value in test [1] is given as 0. For the same substance, the “Semi-quantitative analysis of proteins binding to different plaque particles: Chl small” value in test [2] is reported as 1. For the same substance, in test [3], the “Semi-quantitative analysis of proteins binding to different plaque particles: Abeta-42” value is on record as 2. The “Semi-quantitative analysis of proteins binding to different plaque particles: Tau” value in the test with Tau plaque particles is reported as 4. Further, the “Semi-quantitative analysis of proteins binding to different plaque particles: Synuclein” value in test [4] was determined as 2.

Turning to Ig heavy chain V-III region JON, in test [1], the “Semi-quantitative analysis of proteins binding to different plaque particles: Chl Large” value is listed as 0. Further, the “Semi-quantitative analysis of proteins binding to different plaque particles: Chl small” value in test [2] is reported as 1. Besides, the “Semi-quantitative analysis of proteins binding to different plaque particles: Abeta-42” value in test [3] turned out to be 0. Further, the “Semi-quantitative analysis of proteins binding to different plaque particles: Tau” value in the test with Tau plaque particles amounted to 1. Also, the “Semi-quantitative analysis of proteins binding to different plaque particles: Synuclein” value in test [4] turned out to be 1.

Ig heavy chain V-III region NIE: the “Semi-quantitative analysis of proteins binding to different plaque particles: Chl Large” value in test [1] is recorded as 1. Moreover, the “Semi-quantitative analysis of proteins binding to different plaque particles: Chl small” value in test [2] is given as 1. For the same substance, the “Semi-quantitative analysis of proteins binding to different plaque particles: Abeta-42” value in test [3] amounted to 0. For the same substance, the “Semi-quantitative analysis of proteins binding to different plaque particles: Tau” value with Tau plaque particles amounted to 0. Also, the “Semi-quantitative analysis of proteins binding to different plaque particles: Synuclein” value in test [4] turned out to be 1.

As for Ig heavy chain V-III region TEI, the “Semi-quantitative analysis of proteins binding to different plaque particles: Chl Large” value in test [1] is reported as 4. The “Semi-quantitative analysis of proteins binding to different plaque particles: Chl small” value in test [2] is reported as 5. For the same substance, in test [3], the “Semi-quantitative analysis of proteins binding to different plaque particles: Abeta-42” value is reported as 5. In addition, the “Semi-quantitative analysis of proteins binding to different plaque particles: Tau” value in the test with Tau plaque particles worked out at 4. Besides, the “Semi-quantitative analysis of proteins binding to different plaque particles: Synuclein” value in test [4] came out at 3.

With Ig heavy chain V-III region TIL, the “Semi-quantitative analysis of proteins binding to different plaque particles: Chl Large” value in test [1] was 0. Also, the “Semi-quantitative analysis of proteins binding to different plaque particles: Chl small” value in test [2] was 2. The “Semi-quantitative analysis of proteins binding to different plaque particles: Abeta-42” value in test [3] is reported as 5. The “Semi-quantitative analysis of proteins binding to different plaque particles: Tau” value in the test with Tau plaque particles was determined as 2. For the same substance, in test [4], the “Semi-quantitative analysis of proteins binding to different plaque particles: Synuclein” value is recorded as 0.

Turning to Ig heavy chain V-III region TUR, the “Semi-quantitative analysis of proteins binding to different plaque particles: Chl Large” value in test [1] is recorded as 2. Further, the “Semi-quantitative analysis of proteins binding to different plaque particles: Chl small” value in test [2] is reported as 3. The “Semi-quantitative analysis of proteins binding to different plaque particles: Abeta-42” value in test [3] was determined as 4. For the same substance, in the test with Tau plaque particles, the “Semi-quantitative analysis of proteins binding to different plaque particles: Tau” value is listed as 0. Besides, the “Semi-quantitative analysis of proteins binding to different plaque particles: Synuclein” value in test [4] stood at 1.

Consider Ig heavy chain V-III region VH26, for which, in test [1], the “Semi-quantitative analysis of proteins binding to different plaque particles: Chl Large” value worked out at 2. Moreover, in test [2], the “Semi-quantitative analysis of proteins binding to different plaque particles: Chl small” value is 3. The “Semi-quantitative analysis of proteins binding to different plaque particles: Abeta-42” value in test [3] was 7. Also, the “Semi-quantitative analysis of proteins binding to different plaque particles: Tau” value with Tau plaque particles was found to be 3. Moreover, the “Semi-quantitative analysis of proteins binding to different plaque particles: Synuclein” value in test [4] is 1.

In the case of Ig heavy chain V-III region WA, the “Semi-quantitative analysis of proteins binding to different plaque particles: Chl Large” value in test [1] came out at 1. The “Semi-quantitative analysis of proteins binding to different plaque particles: Chl small” value in test [2] was found to be 2. Further, the “Semi-quantitative analysis of proteins binding to different plaque particles: Abeta-42” value in test [3] is on record as 4. The “Semi-quantitative analysis of proteins binding to different plaque particles: Tau” value in the test on Tau plaque particles is on record as 1. In addition, the “Semi-quantitative analysis of proteins binding to different plaque particles: Synuclein” value in test [4] was 0.

Regarding Ig kappa chain C region, the “Semi-quantitative analysis of proteins binding to different plaque particles: Chl Large” value in test [1] is on record as 17. Moreover, the “Semi-quantitative analysis of proteins binding to different plaque particles: Chl small” value in test [2] was found to be 21. In addition, the “Semi-quantitative analysis of proteins binding to different plaque particles: Abeta-42” value in test [3] is 11. Further, the “Semi-quantitative analysis of proteins binding to different plaque particles: Tau” value with Tau plaque particles is 15. The “Semi-quantitative analysis of proteins binding to different plaque particles: Synuclein” value in test [4] was determined as 15.

Take Ig kappa chain V-I region AU: in test [1], the “Semi-quantitative analysis of proteins binding to different plaque particles: Chl Large” value is 1. The “Semi-quantitative analysis of proteins binding to different plaque particles: Chl small” value in test [2] came out at 1. The “Semi-quantitative analysis of proteins binding to different plaque particles: Abeta-42” value in test [3] worked out at 2. Besides, in the test with Tau plaque particles, the “Semi-quantitative analysis of proteins binding to different plaque particles: Tau” value is listed as 0. Moreover, the “Semi-quantitative analysis of proteins binding to different plaque particles: Synuclein” value in test [4] came to 0.

In the case of Ig kappa chain V-I region CAR, the “Semi-quantitative analysis of proteins binding to different plaque particles: Chl Large” value in test [1] was 1. The “Semi-quantitative analysis of proteins binding to different plaque particles: Chl small” value in test [2] is recorded as 1. Besides, the “Semi-quantitative analysis of proteins binding to different plaque particles: Abeta-42” value in test [3] is 5. In the test on Tau plaque particles, the “Semi-quantitative analysis of proteins binding to different plaque particles: Tau” value was 1. Further, the “Semi-quantitative analysis of proteins binding to different plaque particles: Synuclein” value in test [4] is 1.

On to Ig kappa chain V-I region DE, for which the “Semi-quantitative analysis of proteins binding to different plaque particles: Chl Large” value in test [1] stood at 5. Besides, the “Semi-quantitative analysis of proteins binding to different plaque particles: Chl small” value in test [2] amounted to 1. For the same substance, the “Semi-quantitative analysis of proteins binding to different plaque particles: Abeta-42” value in test [3] worked out at 5. Moreover, the “Semi-quantitative analysis of proteins binding to different plaque particles: Tau” value with Tau plaque particles stood at 2. Also, the “Semi-quantitative analysis of proteins binding to different plaque particles: Synuclein” value in test [4] came out at 3.

With Ig kappa chain V-I region HK102, the “Semi-quantitative analysis of proteins binding to different plaque particles: Chl Large” value in test [1] is 1. For the same substance, the “Semi-quantitative analysis of proteins binding to different plaque particles: Chl small” value in test [2] was 1. For the same substance, the “Semi-quantitative analysis of proteins binding to different plaque particles: Abeta-42” value in test [3] is listed as 5. Besides, the “Semi-quantitative analysis of proteins binding to different plaque particles: Tau” value in the test with Tau plaque particles was found to be 1. Moreover, in test [4], the “Semi-quantitative analysis of proteins binding to different plaque particles: Synuclein” value came to 1.

In the case of Ig kappa chain V-I region Mev, in test [1], the “Semi-quantitative analysis of proteins binding to different plaque particles: Chl Large” value turned out to be 1. Further, the “Semi-quantitative analysis of proteins binding to different plaque particles: Chl small” value in test [2] turned out to be 1. Further, in test [3], the “Semi-quantitative analysis of proteins binding to different plaque particles: Abeta-42” value stood at 0. The “Semi-quantitative analysis of proteins binding to different plaque particles: Tau” value with Tau plaque particles is reported as 0. Also, the “Semi-quantitative analysis of proteins binding to different plaque particles: Synuclein” value in test [4] came out at 0.

Turning to Ig kappa chain V-I region Ni, in test [1], the “Semi-quantitative analysis of proteins binding to different plaque particles: Chl Large” value was determined as 2. Further, in test [2], the “Semi-quantitative analysis of proteins binding to different plaque particles: Chl small” value stood at 2. The “Semi-quantitative analysis of proteins binding to different plaque particles: Abeta-42” value in test [3] was determined as 5. The “Semi-quantitative analysis of proteins binding to different plaque particles: Tau” value with Tau plaque particles worked out at 3. In addition, the “Semi-quantitative analysis of proteins binding to different plaque particles: Synuclein” value in test [4] came out at 2.

Ig kappa chain V-I region Wes: in test [1], the “Semi-quantitative analysis of proteins binding to different plaque particles: Chl Large” value is listed as 2. In test [2], the “Semi-quantitative analysis of proteins binding to different plaque particles: Chl small” value is recorded as 1. In addition, in test [3], the “Semi-quantitative analysis of proteins binding to different plaque particles: Abeta-42” value was found to be 2. Further, the “Semi-quantitative analysis of proteins binding to different plaque particles: Tau” value with Tau plaque particles came to 2. Also, the “Semi-quantitative analysis of proteins binding to different plaque particles: Synuclein” value in test [4] came out at 2.

As for Ig kappa chain V-III region IARC/BL41, the “Semi-quantitative analysis of proteins binding to different plaque particles: Chl Large” value in test [1] was found to be 0. Besides, in test [2], the “Semi-quantitative analysis of proteins binding to different plaque particles: Chl small” value was found to be 1. Also, in test [3], the “Semi-quantitative analysis of proteins binding to different plaque particles: Abeta-42” value was found to be 0. Also, the “Semi-quantitative analysis of proteins binding to different plaque particles: Tau” value in the test on Tau plaque particles came out at 2. For the same substance, in test [4], the “Semi-quantitative analysis of proteins binding to different plaque particles: Synuclein” value was found to be 0.

As for Ig kappa chain V-III region NG9, in test [1], the “Semi-quantitative analysis of proteins binding to different plaque particles: Chl Large” value worked out at 2. Further, the “Semi-quantitative analysis of proteins binding to different plaque particles: Chl small” value in test [2] worked out at 1. For the same substance, in test [3], the “Semi-quantitative analysis of proteins binding to different plaque particles: Abeta-42” value was 0. The “Semi-quantitative analysis of proteins binding to different plaque particles: Tau” value in the test with Tau plaque particles stood at 3. For the same substance, the “Semi-quantitative analysis of proteins binding to different plaque particles: Synuclein” value in test [4] stood at 2.
